Data set [1] has as its system DLBCL in the brain (DLBCL Ly8 cell lines). The data set is described as follows: In vivo treatment of DLBCL in the brain (Ly8 transplanted tumor model). The conditions noted are these: i.p. 3 mg/kg once every two days.
Description: DLBCL Ly8 cell lines were purchased from the Cancer Hospital of Fudan University, which were suspended, cultured, and passaged in 10% calf serum DMEM complete medium, with stable growth. Cells in the logarithmic growth phase were collected, centrifuged, counted, and diluted to 10^4/μl for later use. Cells were inoculated at 2×10^4 cells/animal.
(§1) BALB/c mice: 60 mice, half male and half female, 3-4 weeks old, weighing 15-22 g, purchased from the Experimental Animal Management Center of West China Medical Center.
The mice were anesthetized by intraperitoneal injection of 1% pentobarbital sodium (0.2 μl), fixed on a stereotactic device, and disinfected with 2% chlorhexidine iodine solution on the skin of skull part. The injection site of the syringe was 0.1 cm to the left or right of the midline of the skull, and 0.3 cm in front of the coronal suture in mice. The microsyringe was sequentially penetrated through the skin and skull of the mouse skull part, and was fixed about 1-2 mm into the skull. 2 μl of Ly8 cell suspension was slowly injected (about 2×10^4 cells), and the injection was performed within 15 minutes, followed by leaving the needle for 5 minutes to allow the cells to fully attach, and then slowly removing the needle. […] During sleep after anesthesia, the mice were kept at 30° C. for 2 h. After anesthesia wore off, the mice were placed at room temperature of 25° C., and the surface changes were observed 24 h after inoculation. The following symptoms were observed: topical protrusion on the injection side, body emaciation, lethargy, and decreased mobility.
The mice in the above test drug groups receiving the prepared drug were administered by intraperitoneal injection at 0.2 mL/10 g body weight. The drug preparation was formulated prior to daily administration, and given for 14 days.
(§2) During the administration period, the growth of the mouse tumor, eating, activity, and other adverse reactions were observed and recorded every other day. After 14 days of administration, the mice were euthanized using cervical dislocation method, and their body weight and tumor size were measured and recorded according to the pre-administration numbers. The tumor inhibition rate (%) was calculated based on tumor weight.
Data set [2] relates to pfeiffer cancer cells (diffuse large B-cell lymphoma cell line). As to the kind of experiment: MTS assay of the in vitro inhibitory effect on DLBCL cells (pfeiffer). The conditions noted are these: for OD value Mean / OD value 1 / OD value 2 / OD value 3: MTS, 490 nm; for OD value 1: well 1; for OD value 2: well 2; for OD value 3: well 3. It is filed as cell-based. As for the experimental part:
2.2 MTS Assay of the In Vitro Inhibitory Effect of the Treatment Group on DLBCL Cells (Pfeiffer)
The cells in logarithmic growth phase were digested with 0.25% trypsin, washed with the basic medium, and centrifuged (1000 r/min, twice in 5 minutes). The cells were suspended with complete medium, and the cell concentration was adjusted to […], which was inoculated into a 96-well plate at 50 μl/well (6×10^3 cells/well).
The next day, after the cells adhered to the wall, the drug was given to each group and then incubated for 48 h at a constant temperature of 37° C. under 5% CO2. The dosage for each well is 100 μl. For the blank group, no cell was inoculated, and an equal amount of medium (100 μl) was added; the negative control group received an equal amount of medium (100 μl) after cell inoculation, and 3 wells were set for one group.
20 μl of MTS was added to each well. The plate was further cultivated for 3 h for color development, and then shaken for 10 seconds before testing, to mix well.
The OD value was determined at a wavelength of 490 nm using an enzyme-linked immunosorbent assay (ELISA), and the OD value of the blank control was adjusted to 0.
A general note: Tetrazolium assays rely on reduction of a dye to a coloured formazan, in cell work by metabolically active cells.

In data set [3] the test system is DLBCL in the orbit (DLBCL pfeiffer cell lines). As to the kind of experiment: In vivo treatment of DLBCL in the orbit (pfeiffer transplanted tumor model).
Protocol: DLBCL pfeiffercell lines were purchased from ATCC, USA.
as §1
The cells were thawed in a 37° C. water bath according to the method provided by ATCC, and cultured in RPMI-1640 medium. The medium was exchanged or the cells were passaged every 1-2 days. When the cells were in a stable proliferative state, the cells with good vitality were selected from the 2nd to 3rd generations and counted under a microscope using a cell counting board. The concentration of inoculate cells was adjusted to 1.5×10^8/ml, and sealed for later use.
The tumor cell suspension inoculation method was used. Before cell inoculation, all mice were subjected to cesium-137 radiation to further immunosuppress and improve the success rate of inoculation. Tumor cells were inoculated within 6 hours after irradiation. After disinfecting with 75% alcohol around the eyes, 0.1 ml of tumor cell suspension was drawn using an 1 ml empty needle, and injected into the orbit through the skin of the upper temporal eyelid. […] After inoculation, high-pressure sterilized water containing 100000 U/L of gentamicin was given for one week to prevent infection. 5% glucose with egg yolk was orally administered daily to enhance nutrition. The growth state of mice and local tumor growth was observed every day.
The drug preparation was formulated prior to daily administration, and given for 14 days.
as §2
Setting [4] is: Homo sapiens, 10 μg/ml, 48 h, pfeiffer cells, read-out: Inhibition rate (%).
Where [5] appears, read: i.p. 3 mg/kg once every two days, 14 days.

The term inhibition denotes how much of the control response was suppressed. Consider `CN(Cc1cnc2nc(N)nc(N)c2n1)c1ccc(C(=O)N[C@@H](CCC(=O)O)C(=O)O)cc1` [methotrexate], for which, in data set [1] (14 days), the “Survival number (mouse)” value stood at 6 mouse, the “Tumor inhibition rate (%)” value turned out to be 41.06%, the “Tumor weight” value worked out at 0.79 ± 0.12 g and the “Weight (g) After treatment” value was 17.26 ± 0.65 g. In data set [1] (positive control group), this compound registered a deaths of 1. In addition, in data set [2] (10 μg/ml, 48 h), the “OD value Mean” value is on record as 1.193, the “OD value 1” value amounted to 1.202, the “OD value 2” value is 1.193 and the “OD value 3” value is recorded as 1.185. Further, the inhibition at 10 µg/mL in data set [2] (setting [4]) is 48.7%. Besides, in data set [3] (before administration, group later given i.p. 3 mg/kg once every two days), the “Body weight (g) Before administration” value was 19.31 ± 0.66 g. Moreover, in data set [3] (setting [5]), the “Body weight (g) After administration” value was found to be 18.23 ± 0.79 g, the “Survival number (mice)” value stood at 6 mice and the “Tumor inhibition rate (%)” value worked out at 41.14%. This compound came in with a deaths in data set [3] (positive control group, i.p. 3 mg/kg once every two days) of 1.
With `O=C(/C=C/c1ccc(O)c(O)c1)O[C@@H]1C[C@](O)(C(=O)O)C[C@@H](O)[C@H]1O` [CHA, Chlorogenic acid], the “OD value Mean” value in data set [2] (5 μg/ml, 48 h) came to 1.263; in data set [2] (10 μg/ml, 48 h) it was 1.149; in data set [2] (30 μg/ml, 48 h) it was 0.998; in data set [2] (50 μg/ml, 48 h), 0.628; in data set [2] (100 μg/ml, 48 h), 0.658. Also, the “OD value 1” value in data set [2] (5 μg/ml, 48 h) is 1.335; in data set [2] (10 μg/ml, 48 h), 1.156; in data set [2] (30 μg/ml, 48 h) it was 1.006; in data set [2] (50 μg/ml, 48 h), 0.630; in data set [2] (100 μg/ml, 48 h) it was 0.661. For the same compound, the “OD value 2” value is on record as 1.221 in data set [2] (5 μg/ml, 48 h); 1.142 in data set [2] (10 μg/ml, 48 h); 1.007 in data set [2] (30 μg/ml, 48 h); 0.621 in data set [2] (50 μg/ml, 48 h); 0.65 in data set [2] (100 μg/ml, 48 h). The “OD value 3” value in data set [2] (5 μg/ml, 48 h) came to 1.233; in data set [2] (10 μg/ml, 48 h) it was 1.15; in data set [2] (30 μg/ml, 48 h), 0.98; in data set [2] (50 μg/ml, 48 h) it was 0.634; in data set [2] (100 μg/ml, 48 h), 0.664. In data set [2] (50-100 μg/ml, 48 h), the “cell morphology / growth of pfeiffer cancer cell lines under inverted microscope” value is “significant inhibitory effect”. In data set [2] (Homo sapiens, 5 μg/ml, 48 h, pfeiffer cells, read-out: Inhibition rate (%)), the inhibition at 5 µg/mL was determined as 45.7%. The inhibition at 10 µg/mL in data set [2] (setting [4]) was 50.6%. In data set [2] (Homo sapiens, 30 μg/ml, 48 h, pfeiffer cells, read-out: Inhibition rate (%)), the inhibition at 30 µg/mL stood at 57.1%. Also, the inhibition at 50 µg/mL in data set [2] (Homo sapiens, 50 μg/ml, 48 h, pfeiffer cells, read-out: Inhibition rate (%)) amounted to 73%. Besides, in data set [2] (Homo sapiens, 100 μg/ml, 48 h, pfeiffer cells, read-out: Inhibition rate (%)), the inhibition at 100 µg/mL was 71.7%. Further, the tumor inhibition rate in data set [2] (concentration 50-100 μg/ml, pfeiffer cells) was 71.68-72.97%. Further, in data set [2] (same dose 10 μg/ml), the “inhibitory effect on pfeiffer cancer cells compared with methotrexate” value is “higher inhibitory effect”.

Source of the values: patent publication US20250009702A1 (SICHUAN JIUZHANG BIOLOGICAL SCIENCE AND TECHNOLOGY CO., LTD., priority 2021, published 2025).
